Experimental data from the Kinase Knowledgebase extract (Sharma et al. 2016).
“And” between values parts separate entries of the source, which are not always exact repeats. Equal entries are not always repeated.

The compounds below were run against CDK2 (human) (UniProt P24941) (assay: Enzyme Assay).
With `COc1ccccc1CN1CCC(Nc2nc(N[C@H]3CC[C@H](N)CC3)nc3c2ncn3C2CCCC2)CC1` the IC50 was 240 nM and 110 nM and 80 nM.
`N[C@H]1CC[C@H](Nc2nc(Nc3ccccc3)c3ncn(C4CCCC4)c3n2)CC1` was tested, and the IC50 was 5.4 nM.
For `COc1cccc(CN2CCC(Nc3nc(N[C@H]4CC[C@H](N)CC4)nc4c3ncn4C3CCCC3)CC2)c1`, the IC50 was 140 nM and 300 nM and 340 nM.
In the case of `N[C@H]1CC[C@H](Nc2nc(NC3CCN(Cc4cc(F)ccc4F)CC3)c3ncn(C4CCCC4)c3n2)CC1`, the IC50 is reported as 670 nM and 220 nM and 510 nM.
Work on `N[C@H]1CC[C@H](Nc2nc(NC3CCN(Cc4ccc(F)cc4)CC3)c3ncn(C4CCCC4)c3n2)CC1` yielded an IC50 of 1700 nM.
`Cc1ccc(CN2CCC(Nc3nc(N[C@H]4CC[C@H](N)CC4)nc4c3ncn4C3CCCC3)CC2)cc1Cl` was tested, and the IC50 was 120 nM and 320 nM.
`Cc1ccc(CN2CCC(Nc3nc(N[C@H]4CC[C@H](N)CC4)nc4c3ncn4C3CCCC3)CC2)cc1` was tested, and the IC50 was 170 nM and 230 nM.
